Reference: ChEMBL document CHEMBL4477270, “Design, synthesis, and protein methyltransferase activity of a unique set of constrained amine containing compounds” (Bioorg Med Chem Lett, 2016)

Key:
[1] = biological target: Histone-lysine N-methyltransferase EZH2 (Homo sapiens) (UniProt Q15910); assay: Inhibition of EZH2 (unknown origin) using biotin-labeled histone substrate assessed as residual activity at 50 uM in presence of [3H-Me]SAM by scintillation proximity assay relative to control
[2] = biological target: T1, Histone-lysine N-methyltransferase SUV39H1 (Homo sapiens) (UniProt O43463); assay: Inhibition of SUV39H1 (unknown origin) using biotin-labeled histone substrate assessed as residual activity at 50 uM in presence of [3H-Me]SAM by scintillation proximity assay relative to control
T1 sequence (whole entry): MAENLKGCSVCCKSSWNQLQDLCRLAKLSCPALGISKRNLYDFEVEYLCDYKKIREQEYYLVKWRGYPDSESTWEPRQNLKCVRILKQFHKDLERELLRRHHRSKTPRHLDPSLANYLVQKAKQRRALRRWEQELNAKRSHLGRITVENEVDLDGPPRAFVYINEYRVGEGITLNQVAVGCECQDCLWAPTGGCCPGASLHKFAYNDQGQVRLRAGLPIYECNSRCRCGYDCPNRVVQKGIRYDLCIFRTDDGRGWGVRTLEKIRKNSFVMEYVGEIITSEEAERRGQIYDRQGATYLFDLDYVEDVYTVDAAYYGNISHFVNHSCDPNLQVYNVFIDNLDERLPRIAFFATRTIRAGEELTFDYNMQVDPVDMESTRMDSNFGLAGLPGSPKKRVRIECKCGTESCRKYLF

[3] = biological target: Histone-lysine N-methyltransferase SUV39H2 (Homo sapiens) (UniProt Q9H5I1); assay: Inhibition of SUV39H2 (unknown origin) using biotin-labeled histone substrate assessed as residual activity at 50 uM in presence of [3H-Me]SAM by scintillation proximity assay relative to control
[4] = biological target: Histone-lysine N-methyltransferase 2A (Homo sapiens) (UniProt Q03164); assay: Inhibition of MLL1 (unknown origin) using biotin-labeled histone substrate assessed as residual activity at 50 uM in presence of [3H-Me]SAM by scintillation proximity assay relative to control
[5] = biological target: Histone-lysine N-methyltransferase, H3 lysine-36 specific (Homo sapiens) (UniProt Q96L73); assay: Inhibition of NSD1 (unknown origin) using biotin-labeled histone substrate assessed as residual activity at 50 uM in presence of [3H-Me]SAM by scintillation proximity assay relative to control
[6] = biological target: T2, Histone-lysine N-methyltransferase NSD2 (Homo sapiens) (UniProt O96028); assay: Inhibition of NSD2 (unknown origin) using biotin-labeled histone substrate assessed as residual activity at 50 uM in presence of [3H-Me]SAM by scintillation proximity assay relative to control
T2 sequence (whole entry): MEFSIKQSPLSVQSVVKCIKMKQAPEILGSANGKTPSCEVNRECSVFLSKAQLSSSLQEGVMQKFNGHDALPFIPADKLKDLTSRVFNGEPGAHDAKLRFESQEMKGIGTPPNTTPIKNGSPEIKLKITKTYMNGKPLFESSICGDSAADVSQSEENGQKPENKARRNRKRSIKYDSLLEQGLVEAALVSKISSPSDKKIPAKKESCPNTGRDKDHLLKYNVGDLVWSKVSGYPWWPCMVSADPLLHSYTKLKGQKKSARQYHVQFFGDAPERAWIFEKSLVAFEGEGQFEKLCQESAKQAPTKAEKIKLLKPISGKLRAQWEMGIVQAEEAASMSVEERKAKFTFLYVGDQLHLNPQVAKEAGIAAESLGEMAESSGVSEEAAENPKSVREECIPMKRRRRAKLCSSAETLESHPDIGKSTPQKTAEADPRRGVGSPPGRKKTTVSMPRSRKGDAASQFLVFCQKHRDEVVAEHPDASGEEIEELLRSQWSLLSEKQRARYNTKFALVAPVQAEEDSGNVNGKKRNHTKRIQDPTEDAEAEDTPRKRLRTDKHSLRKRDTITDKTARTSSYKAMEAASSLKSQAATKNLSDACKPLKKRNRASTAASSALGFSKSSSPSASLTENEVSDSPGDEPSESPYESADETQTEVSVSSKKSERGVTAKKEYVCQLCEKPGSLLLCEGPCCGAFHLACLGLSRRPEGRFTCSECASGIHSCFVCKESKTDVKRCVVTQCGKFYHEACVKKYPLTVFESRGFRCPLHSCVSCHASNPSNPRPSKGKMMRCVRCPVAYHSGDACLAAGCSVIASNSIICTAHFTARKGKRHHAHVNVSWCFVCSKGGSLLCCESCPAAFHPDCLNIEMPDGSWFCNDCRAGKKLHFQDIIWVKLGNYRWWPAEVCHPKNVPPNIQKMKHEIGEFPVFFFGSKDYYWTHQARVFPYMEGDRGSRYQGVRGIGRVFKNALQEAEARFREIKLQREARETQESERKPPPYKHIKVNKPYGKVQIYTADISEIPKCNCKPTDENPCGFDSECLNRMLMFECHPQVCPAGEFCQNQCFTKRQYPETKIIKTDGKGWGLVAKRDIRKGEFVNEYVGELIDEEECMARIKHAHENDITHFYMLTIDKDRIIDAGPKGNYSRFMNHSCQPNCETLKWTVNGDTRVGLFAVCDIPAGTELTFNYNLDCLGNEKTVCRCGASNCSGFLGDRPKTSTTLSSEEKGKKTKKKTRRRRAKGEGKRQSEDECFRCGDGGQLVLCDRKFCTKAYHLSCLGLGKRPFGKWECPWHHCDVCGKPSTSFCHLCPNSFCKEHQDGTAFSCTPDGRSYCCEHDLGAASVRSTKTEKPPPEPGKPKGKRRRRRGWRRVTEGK

[7] = biological target: Protein arginine N-methyltransferase 6 (Homo sapiens) (UniProt Q96LA8); assay: Inhibition of PRMT6 (unknown origin) using biotin-labeled histone substrate assessed as residual activity at 50 uM in presence of [3H-Me]SAM by scintillation proximity assay relative to control
[8] = biological target: Protein N-lysine methyltransferase METTL21A (Homo sapiens) (UniProt Q8WXB1); assay: Inhibition of METTL21A (unknown origin) using biotin-labeled histone substrate assessed as residual activity at 50 uM in presence of [3H-Me]SAM by scintillation proximity assay relative to control
[9] = biological target: Protein N-lysine methyltransferase METTL21D (Homo sapiens) (UniProt Q9H867); assay: Inhibition of METTL21D (unknown origin) using biotin-labeled histone substrate assessed as residual activity at 50 uM in presence of [3H-Me]SAM by scintillation proximity assay relative to control
[10] = biological target: Histone-lysine N-methyltransferase KMT5B (Homo sapiens) (UniProt Q4FZB7); assay: Inhibition of SUV420H1 (unknown origin) using biotin-labeled histone substrate assessed as residual activity at 50 uM in presence of [3H-Me]SAM by scintillation proximity assay relative to control
[11] = biological target: Histone-lysine N-methyltransferase KMT5C (Homo sapiens) (UniProt Q86Y97); assay: Inhibition of SUV420H2 (unknown origin) using biotin-labeled histone substrate assessed as residual activity at 50 uM in presence of [3H-Me]SAM by scintillation proximity assay relative to control
Sequence of Histone-lysine N-methyltransferase KMT5C (Homo sapiens) (Q86Y97 whole entry, looked up): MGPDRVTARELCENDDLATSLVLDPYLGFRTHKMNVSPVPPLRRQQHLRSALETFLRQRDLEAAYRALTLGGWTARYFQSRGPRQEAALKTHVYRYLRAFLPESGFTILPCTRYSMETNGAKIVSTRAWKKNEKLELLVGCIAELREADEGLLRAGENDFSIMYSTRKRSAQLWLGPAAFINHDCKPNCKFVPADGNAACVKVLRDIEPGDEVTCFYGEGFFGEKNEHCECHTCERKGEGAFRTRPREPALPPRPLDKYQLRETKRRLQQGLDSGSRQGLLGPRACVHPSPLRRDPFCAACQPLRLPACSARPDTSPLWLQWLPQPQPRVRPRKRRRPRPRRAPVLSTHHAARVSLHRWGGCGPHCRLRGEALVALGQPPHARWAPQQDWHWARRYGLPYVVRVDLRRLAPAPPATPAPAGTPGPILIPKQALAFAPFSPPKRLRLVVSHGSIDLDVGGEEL

Sequence of Protein N-lysine methyltransferase METTL21A (Homo sapiens) (Q8WXB1 whole entry): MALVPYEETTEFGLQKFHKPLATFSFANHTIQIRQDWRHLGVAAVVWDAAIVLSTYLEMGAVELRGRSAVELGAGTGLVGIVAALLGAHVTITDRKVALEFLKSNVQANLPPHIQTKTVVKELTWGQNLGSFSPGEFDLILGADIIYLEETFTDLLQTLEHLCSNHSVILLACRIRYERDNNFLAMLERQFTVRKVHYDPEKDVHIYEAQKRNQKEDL
Sequence of Histone-lysine N-methyltransferase KMT5B (Homo sapiens) (Q4FZB7 whole entry, looked up): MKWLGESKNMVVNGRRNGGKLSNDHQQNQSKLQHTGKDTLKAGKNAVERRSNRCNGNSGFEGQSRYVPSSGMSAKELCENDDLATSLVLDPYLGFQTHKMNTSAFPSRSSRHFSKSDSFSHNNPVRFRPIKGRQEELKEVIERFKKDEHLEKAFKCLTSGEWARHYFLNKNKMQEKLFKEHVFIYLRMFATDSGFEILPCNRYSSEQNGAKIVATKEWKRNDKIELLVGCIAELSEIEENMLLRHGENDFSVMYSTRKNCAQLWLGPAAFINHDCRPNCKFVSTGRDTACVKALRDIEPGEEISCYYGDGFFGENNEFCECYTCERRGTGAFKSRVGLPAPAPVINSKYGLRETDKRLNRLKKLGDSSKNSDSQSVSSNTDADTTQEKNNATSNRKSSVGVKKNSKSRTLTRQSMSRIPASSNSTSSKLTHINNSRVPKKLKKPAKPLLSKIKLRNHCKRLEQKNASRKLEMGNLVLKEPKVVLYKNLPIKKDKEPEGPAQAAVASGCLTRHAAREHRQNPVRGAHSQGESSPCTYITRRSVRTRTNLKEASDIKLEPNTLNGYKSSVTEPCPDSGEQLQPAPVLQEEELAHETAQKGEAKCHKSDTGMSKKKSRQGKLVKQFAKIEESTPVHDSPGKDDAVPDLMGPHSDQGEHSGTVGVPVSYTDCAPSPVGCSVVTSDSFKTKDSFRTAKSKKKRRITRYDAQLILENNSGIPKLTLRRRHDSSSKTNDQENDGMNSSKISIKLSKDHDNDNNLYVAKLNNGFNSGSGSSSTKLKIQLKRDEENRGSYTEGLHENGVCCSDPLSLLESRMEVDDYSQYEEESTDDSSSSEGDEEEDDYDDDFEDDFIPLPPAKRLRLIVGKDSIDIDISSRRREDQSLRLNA
Sequence of Histone-lysine N-methyltransferase, H3 lysine-36 specific (Homo sapiens) (Q96L73 whole entry): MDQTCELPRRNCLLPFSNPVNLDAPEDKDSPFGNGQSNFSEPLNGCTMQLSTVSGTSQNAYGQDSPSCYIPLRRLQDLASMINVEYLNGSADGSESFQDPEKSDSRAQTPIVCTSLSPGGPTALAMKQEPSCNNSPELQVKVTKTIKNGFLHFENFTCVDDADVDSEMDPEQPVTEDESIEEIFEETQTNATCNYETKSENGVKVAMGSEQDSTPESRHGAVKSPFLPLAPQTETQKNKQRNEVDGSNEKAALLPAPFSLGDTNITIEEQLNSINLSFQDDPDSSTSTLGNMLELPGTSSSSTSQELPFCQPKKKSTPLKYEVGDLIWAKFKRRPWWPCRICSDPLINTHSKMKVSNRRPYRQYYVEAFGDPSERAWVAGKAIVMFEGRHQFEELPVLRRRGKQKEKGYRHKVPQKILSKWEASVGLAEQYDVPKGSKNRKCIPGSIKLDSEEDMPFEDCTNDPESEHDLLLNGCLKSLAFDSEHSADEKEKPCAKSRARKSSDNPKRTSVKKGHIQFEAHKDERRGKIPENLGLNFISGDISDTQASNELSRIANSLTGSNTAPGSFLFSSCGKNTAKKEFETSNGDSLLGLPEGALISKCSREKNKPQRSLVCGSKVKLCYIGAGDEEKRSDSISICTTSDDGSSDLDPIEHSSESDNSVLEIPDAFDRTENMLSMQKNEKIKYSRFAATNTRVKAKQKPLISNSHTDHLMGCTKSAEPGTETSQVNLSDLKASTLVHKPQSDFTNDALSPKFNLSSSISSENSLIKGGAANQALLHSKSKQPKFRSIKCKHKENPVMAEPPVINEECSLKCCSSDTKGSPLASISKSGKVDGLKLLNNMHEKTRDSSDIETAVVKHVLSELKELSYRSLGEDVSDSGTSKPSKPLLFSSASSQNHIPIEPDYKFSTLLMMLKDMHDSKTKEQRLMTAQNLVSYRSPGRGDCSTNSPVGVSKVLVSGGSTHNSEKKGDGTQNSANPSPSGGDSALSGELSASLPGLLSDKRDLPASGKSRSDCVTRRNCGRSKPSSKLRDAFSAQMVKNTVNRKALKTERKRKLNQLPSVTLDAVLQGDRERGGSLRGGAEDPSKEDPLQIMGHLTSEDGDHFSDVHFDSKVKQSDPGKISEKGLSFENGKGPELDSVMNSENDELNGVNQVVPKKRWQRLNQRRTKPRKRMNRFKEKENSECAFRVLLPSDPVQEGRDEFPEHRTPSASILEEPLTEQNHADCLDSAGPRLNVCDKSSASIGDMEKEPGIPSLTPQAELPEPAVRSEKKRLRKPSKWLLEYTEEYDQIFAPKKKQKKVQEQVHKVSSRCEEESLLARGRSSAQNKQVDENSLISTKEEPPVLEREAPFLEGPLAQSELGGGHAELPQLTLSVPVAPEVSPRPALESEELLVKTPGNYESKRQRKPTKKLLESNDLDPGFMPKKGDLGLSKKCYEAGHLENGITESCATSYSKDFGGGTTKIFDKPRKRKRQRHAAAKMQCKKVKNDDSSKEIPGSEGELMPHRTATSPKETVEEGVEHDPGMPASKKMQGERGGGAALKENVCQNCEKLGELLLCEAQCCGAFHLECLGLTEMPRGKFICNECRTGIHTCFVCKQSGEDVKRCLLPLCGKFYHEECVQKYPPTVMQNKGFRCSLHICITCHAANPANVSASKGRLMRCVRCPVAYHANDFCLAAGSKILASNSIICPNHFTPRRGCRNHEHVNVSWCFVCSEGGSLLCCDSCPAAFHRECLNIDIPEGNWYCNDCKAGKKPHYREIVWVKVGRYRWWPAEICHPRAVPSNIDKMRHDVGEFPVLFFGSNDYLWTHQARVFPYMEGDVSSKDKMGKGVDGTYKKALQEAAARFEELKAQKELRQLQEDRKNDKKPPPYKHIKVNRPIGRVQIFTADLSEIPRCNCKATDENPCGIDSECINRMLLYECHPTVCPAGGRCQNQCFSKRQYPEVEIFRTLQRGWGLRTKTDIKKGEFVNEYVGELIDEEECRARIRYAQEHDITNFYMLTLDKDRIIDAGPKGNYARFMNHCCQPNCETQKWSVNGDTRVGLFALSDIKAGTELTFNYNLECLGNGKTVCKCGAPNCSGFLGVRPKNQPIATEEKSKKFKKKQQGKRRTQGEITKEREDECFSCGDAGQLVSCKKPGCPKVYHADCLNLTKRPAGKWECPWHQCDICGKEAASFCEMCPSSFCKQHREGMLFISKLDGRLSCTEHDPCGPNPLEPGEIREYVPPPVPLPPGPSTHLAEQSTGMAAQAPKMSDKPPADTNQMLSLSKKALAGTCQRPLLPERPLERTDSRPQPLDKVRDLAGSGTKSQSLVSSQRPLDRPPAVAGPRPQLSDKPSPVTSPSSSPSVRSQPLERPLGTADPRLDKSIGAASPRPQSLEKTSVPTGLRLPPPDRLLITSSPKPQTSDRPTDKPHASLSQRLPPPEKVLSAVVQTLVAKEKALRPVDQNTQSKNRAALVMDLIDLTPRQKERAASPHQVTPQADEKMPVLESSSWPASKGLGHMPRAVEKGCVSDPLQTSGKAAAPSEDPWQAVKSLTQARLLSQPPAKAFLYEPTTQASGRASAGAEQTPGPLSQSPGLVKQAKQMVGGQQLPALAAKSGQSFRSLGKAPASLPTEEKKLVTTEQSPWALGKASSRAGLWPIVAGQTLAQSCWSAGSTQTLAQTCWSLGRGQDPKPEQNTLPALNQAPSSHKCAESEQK
Sequence of Protein arginine N-methyltransferase 6 (Homo sapiens) (Q96LA8 whole entry, looked up): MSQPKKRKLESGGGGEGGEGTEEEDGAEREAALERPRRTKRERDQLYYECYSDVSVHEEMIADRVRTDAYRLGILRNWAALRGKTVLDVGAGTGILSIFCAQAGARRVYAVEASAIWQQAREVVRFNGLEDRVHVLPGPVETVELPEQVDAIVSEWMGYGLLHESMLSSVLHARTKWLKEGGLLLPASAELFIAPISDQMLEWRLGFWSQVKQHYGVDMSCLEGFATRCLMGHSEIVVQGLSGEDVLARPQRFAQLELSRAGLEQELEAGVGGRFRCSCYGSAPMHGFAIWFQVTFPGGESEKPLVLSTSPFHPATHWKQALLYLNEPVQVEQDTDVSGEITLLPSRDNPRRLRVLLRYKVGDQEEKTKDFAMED
Sequence of Protein N-lysine methyltransferase METTL21D (Homo sapiens) (Q9H867 whole entry): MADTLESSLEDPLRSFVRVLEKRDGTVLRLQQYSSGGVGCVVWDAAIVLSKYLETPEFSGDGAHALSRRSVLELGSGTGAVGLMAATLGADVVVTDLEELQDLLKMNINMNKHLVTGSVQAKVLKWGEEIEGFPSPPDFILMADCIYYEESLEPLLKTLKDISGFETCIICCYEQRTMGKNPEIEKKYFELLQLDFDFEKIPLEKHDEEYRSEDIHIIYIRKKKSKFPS

Row | Activity [1] | Activity [2] | Activity [3] | Activity [4] | Activity [5] | Activity [6] | Activity [7] | Activity [8] | Activity [9] | Activity [10] | Activity [11] | Compound
1 | 90% | 97% | 84% | 95% | 91% | 101% | 101% | 100% | 99% | 101% | 100% | CN1CCCC2(CCCN(C(=O)c3cccc(Br)c3)C2)C1 (stereo unspecified)
2 | 92% | 107% | 108% | 109% | 95% | 96% | 103% | 91% | 106% | 102% | 100% | O=C(c1cccc(Br)c1)N1C[C@@H]2CC3CCCCN3[C@@H]2C1 (stereo partly specified)
3 | 93% | 101% | 97% | 105% | 91% | 99% | 104% | 99% | 111% | 98% | 99% | CN1CCC2(CCCN2C(=O)c2cccc(Br)c2)CC1
4 | 88% | 106% | 95% | 103% | 92% | 104% | 112% | 97% | 106% | 112% | 100% | O=C(c1cccc(Br)c1)N1CCCC2(CCNCC2)C1
5 | 88% | 88% | 99% | 106% | 101% | 99% | 103% | 92% | 99% | 108% | 83% | CN1CCCC12CCCN(C(=O)c1cccc(Br)c1)C2 (stereo unspecified)
6 | 95% | 104% | 94% | 105% | 93% | 99% | 107% | 98% | 120% | 103% | 103% | CN1CCCC12CCN(C(=O)c1cccc(Br)c1)CC2
7 | 87% | 102% | 116% | 99% | 96% | 99% | 109% | 105% | 105% | 103% | 105% | CN1CCC2(CC1)CCN(C(=O)c1cccc(Br)c1)CC2
8 | 90% | 98% | 114% | 100% | 95% | 99% | 98% | 97% | 102% | 99% | 98% | C[N+]1(C)CCCCC12CCN(C(=O)c1cccc(Br)c1)CC2
9 | 88% | 99% | 95% | 105% | 96% | 103% | 98% | 98% | 101% | 105% | 97% | O=C(c1cccc(Br)c1)N1CCC2(CCNCC2)CC1
10 | 90% | 91% | 92% | 99% | 101% | 105% | 98% | 100% | 104% | 101% | 109% | CN1CCCC2(CCCN2C(=O)c2cccc(Br)c2)C1 (stereo unspecified)
11 | 90% | 103% | 101% | 107% | 94% | 95% | 106% | 108% | 100% | 106% | 100% | CN1CCC[C@@H]2CN(C(=O)c3cccc(Br)c3)C[C@@H]21

Row | Compound | Activity [1] | Activity [2] | Activity [3] | Activity [4] | Activity [5] | Activity [6] | Activity [7] | Activity [8] | Activity [9] | Activity [10] | Activity [11]
12 | O=C(c1cccc(Br)c1)N1CC[C@H]2NCC[C@H]2C1 | 98% | 104% | 83% | 110% | 95% | 97% | 108% | 99% | 103% | 107% | 99%
13 | O=C(c1cccc(Br)c1)N1C[C@@H]2CCN[C@@H]2C1 | 85% | 77% | 88% | 104% | 93% | 94% | 102% | 96% | 98% | 106% | 94%
14 | O=C(c1cccc(Br)c1)N1CCC2CNCC2C1 (stereo unspecified) | 98% | 92% | 95% | 108% | 93% | 97% | 108% | 100% | 113% | 104% | 104%
15 | CN1CC[C@H]2CN(C(=O)c3cccc(Br)c3)C[C@H]21 | 87% | 82% | 101% | 105% | 96% | 102% | 109% | 89% | 105% | 83% | 100%
16 | O=C(c1cccc(Br)c1)N1C[C@H]2CCCN[C@H]2C1 | 103% | 103% | 107% | 107% | 107% | 89% | 106% | 94% | 102% | 105% | 98%
